Test results: US20240003908A1, “POLYOL BIOMARKERS FOR CONGENITAL DISORDERS OF GLYCOSYLATION” (Mayo Foundation for Medical Education and Research, priority 2020, published 2024)
Values joined by “and” are separate entries in the source; they are usually repeats but may differ in a detail not shown here. Equal entries are not always repeated.

Columns and labels:
[1] = system: PMM-deficient fibroblasts; assay: Multiplexed proteomics of PMM-deficient fibroblasts treated with epalrestat or vehicle; assay type: cell-based, human
Source text: Proteomics and glycoproteomics: Cell were scraped in PBS, pH 7.4 and sonicated with a tip sonicator at 40% amplitude for 3 cycles of 10 seconds each. Equal amount of proteins were digested with trypsin as described elsewhere (Mun et al., Anal Chem 92:14466-14475, 2020). The digested peptides were labeled with tandem mass tag (TMT) reagents as per the manufacturer's instructions (ThermoFisher). Labelled samples were pooled, and either size-exclusion chromatography or basic pH reversed-phase fractionation was performed. An aliquot of dried peptides was resuspended in 100 μL of 0.1% formic acid and injected into Superdex peptide 10/300 column (GE Healthcare). Twenty-one (21) early fractions were collected starting at 10 minutes after injection (total run time of 130 minutes) and analyzed by LC-MS/MS as described elsewhere (Mun et al., supra). Another aliquot of total peptides was cleaned up by C18 TopTips (Glygen) and fractionated by bRPLC on a reversed phase C18 column (4.6×100 mm column). Twelve (12) fractions were dried and re-suspended in 0.1% formic acid for LC-MS/MS analysis.
A modification of the LC-MS/MS parameters described by Mun et al. (supra) were used. Specifically, 21 early fractions from SEC and 12 fractions of bRPLC were analyzed by Orbitrap Exploris480 mass spectrometer (Thermo Fisher Scientific) coupled to an EASY-Spray column (Thermo Fisher Scientific). Every run was 130 minutes with a flow rate of 300 nL/minute. The gradient used for separation was: equilibration at 3% solvent B from 0 to 4 minutes, 3% to 10% sol B from 4 to 10 minutes, 10% to 35% sol B from 10.1 to 125 minutes, and 35% to 80% sol B from […]. All experiments were done in DDA mode with the top 15 ions isolated at a window of 0.7 m/z and a default charge state of +2. Charge states ranging from +2 to +7 were considered for MS/MS events. Stepped collision energy was applied to precursors at normalized collision energies of 15, 25, and 40. The MS precursor mass range was set to 375 to 2000 m/z and 100 to 2000 for MS/MS. The automatic gain control for MS and MS/MS were 1×10^6 and 1×10^5 and the injection times to reach AGC were 50 ms and 250 ms, respectively. 60 second dynamic exclusion was applied. Data acquisition was performed with the option of Lock mass (441.1200025 m/z) for all data.
Database searching and analysis: The publicly available software pGlyco Version 2.2.0 was used (Zeng et al., Sci Rep 6:25102, 2016; and Liu et al., Nat Commun 8:438, 2017). A glycan database containing 8,092 entries and Uniprot Human Reviewed protein sequences (20,432 entries) were used as protein sequence fasta files. […] Reporter ion quantification was performed in Proteome Discoverer 2.5 using “reporter ion quantifier” node and Ids were matched with quantitation on a scan-to-scan basis (MS/MS). […]

urine sorbitol = assay: Urine sorbitol (GC/MS) in a PMM2-CDG pediatric patient on oral epalrestat therapy; assay type: in vivo, human
Method: Clinical studies: Epalrestat was used as an N of 1 study for a single pediatric patient with PMM2-CDG. An open label, single patient compassionate use study designed to assess the safety and tolerability of oral epalrestat therapy in a child with PMM2-CDG. The patient received […]. Concomitant medications, vital signs, blood draw for serum chemistry and hematology, and blood levels of epalrestat were collected at each study visit during a 6 month period to evaluate the safety and tolerability of oral epalrestat therapy in a child with PMM2-CDG. The Nijmegen Pediatric CDG Rating Scale (NPCRS) assessment was administered at the start of the study and at 6 months. Urine polyols were collected at the start, at 4 months, and at 6 months of therapy, and were measured as described elsewhere (Jansen et al., Clin Chim Acta 1986, 157:277-294). Briefly, 200 μl urine specimens were spiked with a mixture of labeled internal standards, allowed to equilibrate, and evaporated. […] Specimens were analyzed by GC/MS, selected ion monitoring using ammonia chemical ionization and a stable isotope dilution method. In general, the following protocol was used: • Creatinine (CR) values (mg/dL) were determined for all samples. • Multiplication factors were calculated for each patient sample. • 100 μL of Polyol QC Mix for the QC Standard and 100 μL water were pipetted into a labeled 16×100 screw-cap glass tube. • 200 μL each of low control and high control were pipetted into corresponding labeled 16×100 mm screw-cap glass tubes. • 200 μL of each patient sample was pipetted into a corresponding labeled 16×100 mm screw cap glass tube. […]
Urine sorbitol and mannitol levels also were quantified using similar processing of samples and GC/MS settings, monitoring ions specific for sorbitol and mannitol for peak area ratio calculations.
Patient assessment: Prior to the first dose of epalrestat and at 1, 2, 3, 6, 8, 9, 12 months during treatment, concomitant medications and vital signs were recorded and the patient was evaluated using the NPCRS. […]

## CC(/C=C1\SC(=S)N(CC(=O)O)C1=O)=C\c1ccccc1 [epalrestat]
[1]; epalrestat-treated vs untreated PMM2-CDG fibroblasts
  Sorbitol dehydrogenase (SORD) increase in abundance: 11%
[1]; of the 13 changed proteins
  number of proteins increased post treatment (30% cutoff): 12
[1]; paired analysis before and after epalrestat
  number of proteins different post-treatment with a 30% or bigger change cutoff: 13 proteins
[1]; paired analysis before and after epalrestat, P1-P6 fibroblasts
  number of proteins different post-treatment: 628 proteins
Urine sorbitol; 6 months of epalrestat therapy, prior to treatment 19.93, controls <5
  urine sorbitol level: 6.2 mmol/mol creatinine and 6.20 mmol/mol creatinine
Urine sorbitol; after 3 months of epalrestat therapy, before therapy 19.93, controls <5
  urine sorbitol level: 5.78 mmol/mol creatinine
Urine sorbitol; after 4 months of epalrestat treatment, prior to treatment 19.93, controls <5
  urine sorbitol level: 5.0 mmol/mol creatinine
